Test results published in the METLIN SMRT retention time set (Domingo-Almenara et al. 2019).

Experiment: gradient 5% acetonitrile 3 min, to 50% in 2 min, to 85% in 15 min, held 3 min, 100 µL/min
Conditions: column: Zorbax Extend-C18 2.1 x 50 mm; eluents: water / acetonitrile, 0.1% formic acid
Procedure, shortened: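 Data were gathered over 3 months by HPLC coupled to a quadrupole time-of-flight mass spectrometer, operated in positive and negative ionization mode. Mixtures of ~100 pure standards ran on a Zorbax Extend-C18 column (2.1 × 50 mm, 1.8 μm) at 100 μL/min, with water and acetonitrile each containing 0.1% formic acid and dead and dwell volumes of 40 μL and 900 μL. Retention time was read from adduct peaks picked by computer and checked manually.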

RP-LC retention time | Compound
1250 s | Cc1ccc(-c2nc(NC(=O)CCCOc3ccc(Cl)cc3)sc2C)cc1
1260 s | CSc1ccc(Cl)c(-c2nc(-c3ccc4oc(C)nc4c3)no2)c1
634 s | O=C(NCCCn1cccn1)c1c(OCC2CC2)cc(=O)n2c1CCCCC2
825 s | CCOC(=O)C1CCCN(C(=O)C2CCN(S(=O)(=O)c3ccc4c(c3)sc(=O)n4C)CC2)C1 (stereo not given)
1010 s | Cc1cc(N2CCN(c3ccccn3)CC2)n2nc(C(F)(F)F)c(-c3ccc(Cl)cc3)c2n1
676 s | COc1ccc(CC(=O)NC(C)C(=O)Nc2nc3ccccc3[nH]2)c(Cl)c1 (stereo not given)
584 s | O=C(c1ccc2c(c1)OCO2)N1CCC(c2ccncc2)CC1
842 s | CCc1ccc(CNC(=O)C2CCN(c3ncnc4c3oc3ccccc34)CC2)cc1
644 s | O=C(Cc1cccc(Cl)c1)N1CCN(c2nc(CN3CCOCC3)cs2)CC1
868 s | Cc1[nH]c(C(=O)N2CCC(CC(=O)NCc3cccc(Cl)c3)CC2)c(C)c1C(=O)OC(C)C
1070 s | CCc1nc(-c2cccc(-c3noc(CNS(=O)(=O)c4ccccc4)n3)c2)cs1
1020 s | Cc1oc(C(C)C)nc1C(=O)NC1CCCCC1
710 s | CCc1nc2ccc(-c3noc(-c4cccc(C#N)c4)n3)cc2n1CC
1260 s | CCCCCCCNC(=O)C1CCCN(c2ncc(-c3ccccc3)cn2)C1 (stereo not given)
697 s | Cc1nnc(-c2cc(NS(C)(=O)=O)c(C)s2)o1
778 s | Cc1[nH]c(C)c(S(=O)(=O)N2CCC(C(=O)N3CCc4ccccc43)CC2)c1C(=O)N1CCCCC1
631 s | COCCNC(=O)CC1CCN(C(=O)c2[nH]c(C)cc2C)CC1

RP-LC retention time | Compound
775 s | Cn1ncc2c3ccccc3n(CCCC(=O)NCCc3ccco3)c2c1=O
831 s | CN(C1CCc2nn(CC3CC3)c(=O)n2CC1)S(=O)(=O)c1ccccc1C(F)(F)F (stereo not given)
626 s | COc1ccc(OC)c(S(=O)(=O)N2CCC(Cn3c(C)cnc3C)C2)c1 (stereo not given)
628 s | CC(C)n1c(=O)sc2cc(S(=O)(=O)N3CCC(C(=O)N4CCN(C)CC4)CC3)ccc21
757 s | CCOc1ccc(-c2nnc(SCC(=O)N3CCCC3)o2)cc1
804 s | Cc1ccccc1-c1noc(CN2N=NC3C(=O)N(c4ccc(F)c(F)c4)C(=O)C32)n1 (stereo not given)
738 s | Cc1ccc(C)c(NC(=O)CC2COc3ccccc3NC2=O)c1 (stereo not given)
766 s | CC(=O)Nc1nc(-c2ccc(F)c(F)c2)cs1
1180 s | COc1ccc(Cl)cc1NC(=O)Cn1c(C)nc2c(sc3nc(-c4ccccc4)ccc32)c1=O
776 s | O=C1CCCc2cc(S(=O)(=O)N3CCC(C(=O)NCCc4ccc(Cl)cc4)CC3)ccc2N1
593 s | Cc1ccc(C)c(N2CCN(Cc3nc4nc(C)cc(N5CCN(C)CC5)n4n3)CC2)c1
935 s | O=C(NCc1ccc(C(F)(F)F)cc1)c1cnc(-c2ccccc2)nc1-c1ccncc1
733 s | Cc1nc(-c2cc3cccc(C)c3nc2N2CCN(c3ccccc3F)CC2)no1
712 s | CC(Oc1ccc2c(c1)OCO2)C(=O)NCCn1nc(-c2cccs2)ccc1=O (stereo not given)
620 s | COCCOCC1CCN(C(=O)CNC(=O)c2ccccc2)CC1
666 s | Cn1ccc2cc(S(=O)(=O)N3CCC(C(=O)NC4CCN(Cc5ccccc5)CC4)CC3)ccc21
713 s | Cc1cc(N2CCCC2)nc(N2CCN(C(=O)c3ccc(Br)cc3)CC2)n1

Compound | RP-LC retention time
CC(C)C[C@H]1C(=O)N2CCC[C@H]2[C@]2(O)O[C@](NC(=O)[C@@H]3C=C4c5cccc6[nH]c(Br)c(c56)CC4N(C)C3)(C(C)C)C(=O)N12 (stereo not given in full) | 830 s
